Experimental data reported in ChEMBL document CHEMBL3400053, “trans-3,4-Disubstituted pyrrolidines as inhibitors of the human aspartyl protease renin. Part II: prime site exploration using an oxygen linker” (Bioorg Med Chem Lett, 2015).
pIC50: −log10 of the molar value.

Tests used:
Renin [1] = target: T1, Renin (Homo sapiens, UniProt P00797); assay: Inhibition of human recombinant renin by TR-FRET assay
T1 sequence (P00797 whole entry): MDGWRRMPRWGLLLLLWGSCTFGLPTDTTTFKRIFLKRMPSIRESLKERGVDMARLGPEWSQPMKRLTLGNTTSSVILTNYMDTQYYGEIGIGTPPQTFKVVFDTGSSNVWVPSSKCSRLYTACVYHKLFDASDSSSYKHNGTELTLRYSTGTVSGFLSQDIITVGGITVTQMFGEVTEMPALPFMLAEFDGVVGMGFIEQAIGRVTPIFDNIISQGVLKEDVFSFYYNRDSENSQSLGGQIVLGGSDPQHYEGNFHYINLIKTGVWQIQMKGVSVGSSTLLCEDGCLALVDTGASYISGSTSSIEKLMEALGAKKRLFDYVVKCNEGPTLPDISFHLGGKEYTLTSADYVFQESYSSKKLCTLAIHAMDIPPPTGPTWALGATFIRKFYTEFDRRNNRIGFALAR

Rattus norvegicus = assay: Reduction in mean arterial blood pressure in orally dosed hypertensive telemetered double-transgenic rat overexpressing human renin and angiotensinogen; type: functional, organism-based
[2] = Ratio of permeability from basolateral to apical to side over apical to basolateral side in human Caco2 cells; type: ADME, cell-based; settings: caco-2
Renin [3] = target: T1, Renin; assay: Inhibition of human recombinant renin in presence of plasma by TR-FRET assay
Cytochrome P450 3A4 = Cytochrome P450 3A4 (Homo sapiens, UniProt P08684); assay: Inhibition of CYP3A4 (unknown origin) using 7-benzyl-4-trifluoromethylcoumarin as fluorometric substrate; type: ADME
Cytochrome P450 3A4, sequence (P08684 whole entry): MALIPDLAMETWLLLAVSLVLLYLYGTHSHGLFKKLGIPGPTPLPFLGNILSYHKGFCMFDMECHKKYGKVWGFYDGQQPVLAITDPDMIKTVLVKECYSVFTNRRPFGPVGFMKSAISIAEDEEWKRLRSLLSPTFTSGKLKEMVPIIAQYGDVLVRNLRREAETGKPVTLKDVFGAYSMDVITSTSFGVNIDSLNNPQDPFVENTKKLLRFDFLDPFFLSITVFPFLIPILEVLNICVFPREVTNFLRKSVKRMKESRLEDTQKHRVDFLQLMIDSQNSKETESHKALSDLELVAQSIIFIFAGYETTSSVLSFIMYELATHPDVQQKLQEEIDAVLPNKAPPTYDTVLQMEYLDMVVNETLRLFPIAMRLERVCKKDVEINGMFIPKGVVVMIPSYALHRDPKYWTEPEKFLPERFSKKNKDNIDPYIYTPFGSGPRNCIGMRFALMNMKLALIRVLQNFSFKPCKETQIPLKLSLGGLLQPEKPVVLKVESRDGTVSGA

| Compound | pIC50 (Renin [1]) | further results |
| --- | --- | --- |
| COCCCOc1cc(C(=O)N(C[C@H]2CNC[C@@H]2OC(=O)NCc2ccccc2)C(C)C)ccc1OC | 5.04 |  |
| COCCCOc1cc(C(=O)N(C[C@@H]2CNC[C@H]2OC(=O)NCc2ccccc2)C(C)C)ccc1OC |  | inhibition (Rattus norvegicus): Dose-dependent effect |
| COCCCOc1cc(C(=O)N(C[C@@H]2CNC[C@H]2Oc2ccc(C(F)(F)F)cc2)C(C)C)ccc1OC (racemic) | 6.35 |  |
| COCCCOc1cc(C(=O)N(C[C@@H]2CNC[C@H]2OCc2ccccc2)C(C)C)ccc1OC (racemic) | 6.11 | Ratio [2]: 62; pIC50 (Renin [3]): 6.07 |
| COCCCOc1cc(C(=O)N(C[C@H]2CNC[C@H]2OCc2ccccc2)C(C)C)ccc1OC (racemic) | 5.50 |  |
| COCCCOc1cc(C(=O)N(C[C@@H]2CNC[C@H]2OCc2cccc(OC)c2)C(C)C)ccc1OC (racemic) | 6.60 | pIC50 (Cytochrome P450 3A4): ≥ 6.70 |
| COCCCOc1cc(C(=O)N(C[C@@H]2CNC[C@H]2OCc2cccc(Oc3ccccc3)c2)C(C)C)ccc1OC (racemic) | 6.60 |  |
| COCCCOc1cc(C(=O)N(C[C@@H]2CNC[C@H]2OCc2cccc(-c3ccccc3)c2)C(C)C)ccc1OC (racemic) | 6.84 | pIC50 (Cytochrome P450 3A4): ≥ 6.70; pIC50 (Renin [3]): 5.96 |
| COCCCOc1cc(C(=O)N(C[C@@H]2CNC[C@H]2OCc2cccc(-n3cccc3)c2)C(C)C)ccc1OC (racemic) | 7.07 | pIC50 (Cytochrome P450 3A4): ≥ 6.70 |
| COCCCOc1cc(C(=O)N(C[C@@H]2CNC[C@H]2OCc2cccc(-c3cccc(C)c3)c2)C(C)C)ccc1OC (racemic) | 7.19 |  |
| COCCCOc1cc(C(=O)N(C[C@@H]2CNC[C@H]2OCc2cccc(-c3cccc(OC)c3)c2)C(C)C)ccc1OC (racemic) | 6.46 |  |
| COCCCOc1cc(C(=O)N(C[C@@H]2CNC[C@H]2OCc2cccc(-c3ccccc3OC)c2)C(C)C)ccc1OC (racemic) | 7.19 |  |
| CCOc1ccccc1-c1cccc(CO[C@@H]2CNC[C@H]2CN(C(=O)c2ccc(OC)c(OCCCOC)c2)C(C)C)c1 (racemic) | 6.26 |  |
| COCCCOc1cc(C(=O)N(C[C@@H]2CNC[C@H]2OCc2cccc3ccccc23)C(C)C)ccc1OC (racemic) | 6.70 |  |
| COCCCOc1cc(C(=O)N(C[C@@H]2CNC[C@H]2OCc2ccc3ccccc3c2)C(C)C)ccc1OC (racemic) | 7.05 |  |
| COCCCOc1cc(C(=O)N(C[C@@H]2CNC[C@H]2OC(=O)Nc2cccc(OC)c2)C(C)C)ccc1OC (racemic) | 6.52 |  |
| COCCCOc1cc(C(=O)N(C[C@@H]2CNC[C@H]2OC(=O)NCc2ccccc2)C(C)C)ccc1OC (racemic) | 7.10 |  |
| COCCCOc1cc(C(=O)N(C[C@@H]2CNC[C@H]2OC(=O)N(C)Cc2ccccc2)C(C)C)ccc1OC (racemic) | 6.46 |  |
| COCCCOc1cc(C(=O)N(C[C@@H]2CNC[C@H]2OC(=O)N2CCCC2)C(C)C)ccc1OC (racemic) | 5.94 |  |
| COCCCOc1cc(C(=O)N(C[C@@H]2CNC[C@H]2OC(=O)NCc2ccco2)C(C)C)ccc1OC (racemic) | 7.05 |  |
| COCCCOc1cc(C(=O)N(C[C@@H]2CNC[C@H]2OC(=O)NCc2nccs2)C(C)C)ccc1OC (racemic) | 7.00 |  |
| COCCCOc1cc(C(=O)N(C[C@@H]2CNC[C@H]2OC(=O)N(C)Cc2cccc3ccccc23)C(C)C)ccc1OC (racemic) | 7.35 | pIC50 (Renin [3]): 7.46 |
| COCCCOc1cc(C(=O)N(C[C@@H]2CNC[C@H]2OC(=O)N(C)Cc2cccc3c2OCO3)C(C)C)ccc1OC (racemic) | 7.70 |  |
| COCCCOc1cc(C(=O)N(C[C@@H]2CNC[C@H]2OC(=O)N(C)Cc2nc3ccccc3s2)C(C)C)ccc1OC (racemic) | 7.52 |  |
| COCCCOc1cc(C(=O)N(C[C@@H]2CNC[C@H]2OC(=O)N(C)Cc2ccccc2-n2cccc2)C(C)C)ccc1OC (racemic) | 8.05 |  |
| COCCCOc1cc(C(=O)N(C[C@@H]2CNC[C@H]2OC(=O)N(C)Cc2ccccc2N2CCCC2)C(C)C)ccc1OC (racemic) | 7.10 |  |
